Entries after “also recorded” stand apart in the source; their conditions may differ. Structures can show the parent of a compound that is named as a salt.
System: ZIKV MR766 virus strain
Experiment: Prophylactic treatment of ZIKV infected SCID-Beige mice
Format: in vivo
Experimental: (A) Scheme of prophylactic treatment of HH in vivo. HH was administrated to SCID-Beige mice 12 h before infection with MR766 virus strain. HH was injected at a dose of 100 mg/kg/day subcutaneously and euthanized at day 7. (B) qRT-PCR analysis of total ZIKV vRNA in liver, spleen, kidney and brain of ZIKV infected mice. n=12 for liver, spleen and kidney and 20 for brain. (C) qRT-PCR analysis of total ZIKV vRNA in brains of ZIKV-infected mice treated with vehicle (n=14) or HH (n=8). […] (D-F) Immunohistochemical analysis of adult cortex. […] Scale bar=100 μm in (D) and 10 μm in (E, F). (G-I) Immunohistochemical analysis of adult hippocampus. […] Scale bar=100 μm in (G) and 10 μm in (H, I). (J-L) Immunohistochemical analysis of adult striatum. […] Scale bar=100 μm in (J) and 10 μm in (K, L). (M, N) Immunohistochemical analysis of cellular apoptosis in adult cortex. […] Scale bar=100 μm in (M) and 10 μm in (N). (O, P) Expression kinetics of total vRNA (O) and (−) strand vRNA (P) of ZIKV (MR766 strain) in mouse brain. N is larger or equal to 4 mice at each time points. The mice were inoculated with (1×10^6 PFU) through intraperitoneal injection. The mice were euthanized at 12 h, 24 h, 3 days, 4 days and 5 days post-infection. (Q) Scheme of therapeutic treatment of HH on ZIKV (MR766 strain) infected mice. The SCID-beige mice were infected with ZIKV (MR766 strain, 1×10^6 PFU). The mice at 5 days post-infection were treated with 100 mg/kg HH or vehicle daily for 5 days. The mice were then euthanized and RNA from brains was analyzed using qRT-PCR. (R, S) qRT-PCR analysis of total vRNA (R) and (−) strand RNA (S) in the brains of mice treated with vehicle (n=8) or HH (n=8) at day 5 post-infection. (T, U) Expression kinetics of total vRNA (N) and (−) strand vRNA (O) of ZIKV (FSS13025 strain) in mouse brain. N is larger or equal to 4 mice at each time points. The mice were inoculated with (3×10^6 PFU) through intraperitoneal injection. The mice were euthanized at 12 h, 24 h, 3 days, 5 days and 7 days post-infection. (V) Scheme of therapeutic treatment of HH on ZIKV (FSS13025 strain) infected mice. The SCID-beige mice were infected with ZIKV (FSS13025 strain, 3×10^6 PFU). The mice at 7 days post-infection were treated with 100 mg/kg HH or vehicle daily for 7 days. The mice were euthanized after 7 days treatment and RNA from brains was analyzed using qRT-PCR. (W, X) qRT-PCR analysis of total vRNA (W) and (−) strand RNA (X) in the brains of mice treated with vehicle (n=8) or HH (n=11) at day 7 post-infection. p values were calculated by one-way repeated measures ANOVA or two-way repeated measures ANOVA with a Bonferroni test for multiple comparisons. *p<0.05, **p<0.01 and ***p<0.001.
PBS, the solvent used to dissolve both compounds, was used as vehicle control.
The mice were euthanized at day 7 post-infection. Total ZIKV vRNA was then quantified in multiple organs of ZIKV-infected mice treated with vehicle, including liver, spleen, kidney and brain (FIG. 4B).
The immunohistochemical analysis of mouse tissues was performed on cryosections. In brief, the tissues were fixed overnight with 4% PFA at 4° C., embedded in OCT, and then sectioned at 30 μm for immunostaining. The primary and secondary antibodies were used as described above.
Adult mouse infection and in vivo drug testing. 6-8 week old female SCID-Beige mice were infected with ZIKV (2.5×10^5 PFU in 0.5 ml culture fluid) through intraperitoneal injection.

[1] = HH 100 mg/kg/day subcutaneously, hydrobromide

CN1CCC2=C[C@H](O)[C@H]3OC(=O)c4cc5c(cc4[C@H]3[C@@H]21)OCO5 [HH, hippeastrine hydrobromide]
ZIKV vRNA in brain (HH 100 mg/kg/day subcutaneously from 12 h before infection, day 7 post-infection): significantly lower level | ZIKV infection of adult cortex (immunohistochemistry) [1]: fully inhibits infection of adult cortex; also recorded: completely inhibited | ZIKV infection of adult hippocampus (immunohistochemistry) [1]: completely inhibits infection of the adult hippocampus; also recorded: completely inhibited | ZIKV infection of adult striatum (immunohistochemistry) [1]: fully inhibits infection of the adult striatum; also recorded: completely inhibited | cellular apoptosis (CAS3) associated with ZIKV infection in the cortex [1]: rescues cellular apoptosis; also recorded: completely inhibited
